# Measured values as given in ChEMBL document CHEMBL4765331, “Amides of pyrrole- and thiophene-fused anthraquinone derivatives: A role of the heterocyclic core in antitumor properties” (Eur J Med Chem, 2020).
# Activity calls are given as the source filed them. No cut-off for these calls is given here.
# How the values were obtained:
# HCT-116 [1] = experiment: Antiproliferative activity against human HCT-116 cells assessed as inhibition of cell proliferation measured after 72 hrs by MTT assay; assay type: functional, cell-based; conditions: HCT-116, 72 h
# NCI-H460 = experiment: Antiproliferative activity against human NCI-H460 cells assessed as inhibition of cell proliferation measured after 72 hrs by MTT assay; assay type: functional, cell-based; conditions: NCI-H460, 72 h
# HL-60 = experiment: Antiproliferative activity against human HL-60 cells assessed as inhibition of cell proliferation measured after 72 hrs by MTT assay; assay type: functional, cell-based; conditions: HL-60, 72 h
# HCT-116 [2] = experiment: Antiproliferative activity against human HCT-116 cells with inactivated p53 gene assessed as inhibition of cell proliferation measured after 72 hrs by MTT assay; assay type: functional, cell-based; conditions: HCT-116, 72 h
# Calf thymus DNA [3] = experiment: Binding affinity to calf thymus DNA assessed as DNA intercalation by measuring decrease of negative DNA band at 245 nm at 50 uM by circular dichroism spectral analysis; assay type: tissue-based; conditions: Bos taurus
# Calf thymus DNA [4] = experiment: Binding affinity to calf thymus DNA assessed as dissociation constant by scatchard plot analysis; parameters: species or system Bos taurus
# [5] = Drug uptake in mouse NIH3T3 cells assessed as compound localization in nucleus at 1 uM measured after 15 mins by laser scanning microscope; assay type: ADME, subcellular; conditions: nih3t3, 0.25 h
# [6] = Drug uptake in mouse NIH3T3 cells assessed as compound localization in cytoplasm at 1 uM measured after 15 mins by laser scanning microscope; assay type: ADME, subcellular; conditions: nih3t3, 0.25 h
# K562 = experiment: Induction of apoptosis in human K562 cells assessed as early apoptotic cells at 1.6 uM measured after 48 hrs by Annexin V-APC/PI staining based flow cytometry assay (reference value: 3.4%); assay type: functional
# P388 [7] = experiment: Antitumour activity against mouse P388 cells xenografted intraperitoneally in BDF1 mouse assessed as mean life span time at 20 mg/kg, ip administered qd for 5 days (reference value: 11.5 +/-0.9 days); assay type: functional; conditions: dose 20 mg/kg/day; time 5 day
# P388 [8] = experiment: Antitumour activity against mouse P388 cells xenografted intraperitoneally in BDF1 mouse assessed as […] T/C ratio at 20 mg/kg, ip administered qd for 5 days (reference value: 100%); assay type: functional; conditions: dose 20 mg/kg/day; time 5 day
# [9] = Toxicity in BDF1 mouse xenografted with mouse P388 cells assessed as lethality at 60 mg/kg, ip administered qd for 5 days; assay type: organism-based; conditions: in vivo, 120 h, dose 60 mg/kg/day, time 5 day
# [10] = Selectivity index, ratio of IC50 for human TERT-RPE1 cells to IC50 for human K562 cells; assay type: toxicity; conditions: TERT-RPE1 cells and K562 cells, read-out: Ratio IC50
# [11] = Drug uptake in P-gp-positive/doxorubicin-resistant human K562/4 cells; assay type: ADME
# P388 [12] = experiment: Antitumour activity against mouse P388 cells xenografted subcutaneously in ip dosed BDF1 mouse assessed as inhibition of tumour growth administered qd for 5 days starting from day 1 of tumor cell inoculation and measured at day 14 to 18 post-tumor cell inoculation; assay type: functional, organism-based; conditions: dose 20-60 mg/kg, time 14-18 day
# P388 [13] = experiment: Antitumour activity against mouse P388 cells xenografted subcutaneously in BDF1 mouse assessed as inhibition of tumour growth at 20 to 60 mg/kg, ip administered qd for 5 days starting from day 1 of tumor cell inoculation and measured at day 14 to 18 post-tumor cell inoculation; assay type: functional, organism-based; conditions: dose 20-60 mg/kg, time 14-18 day, TDE = time-dependent effect
smiles,measurement,setting,value
Cc1[nH]c2c(O)c3c(c(O)c2c1C(=O)N1CC[C@H](N)C1)C(=O)c1ccccc1C3=O,IC50,HCT-116 [1],900 nM
same,IC50,NCI-H460,900 nM
same,IC50,HL-60,900 nM
same,IC50,HCT-116 [2],800 nM
same,Activity,Calf thymus DNA [3],Active
same,Kd,Calf thymus DNA [4],700 nM
same,Drug uptake,[5],Active
same,Drug uptake,[6],Active
same,Activity,K562,0.9%
same,Time,P388 [7],17.6 days
same,T/C,P388 [8],153%
same,Activity,[9],Non-Toxic
same,selectivity ratio,[10],18
same,Drug uptake,[11],Active
same,Activity,P388 [12],Dose-dependent effect
same,Activity,P388 [13],Tde
